Tests used:
[1] = target: T1, Human ACC2 (Nd, N terminal deleted) (Homo sapiens, UniProt O00763); experiment: Measurement of ACC2 inhibitory activity (recombinant ACC2 (Nd), malachite green absorbance); type: biochemical; conditions: recombinant human ACC2 (Nd) 6.4 μg/ml; 30° C.; 200 μM ATP, 200 μM Acetyl-CoA; absorbance 620 nm
T1 construct: His tag (from the pFAST-BacHTa vector); own knowledge: N-terminal 6xHis with TEV site; made in house; host or cells: SF-9 insect cells, recombinant baculovirus BAC-ACC2 (Nd)
Protocol: The ACC2 inhibitory action of the compound of the present invention was evaluated by the following method.
(§1) Human ACC2 gene was cloned by PCR using a human skeletal muscle cDNA library (Clontech) as a template and Primer 1 and Primer 2 shown below. Primer 1 and Primer 2 were prepared by adding SalI, XbaI restriction enzyme recognition sequences based on the information of the base sequence (Genbank Accession U89344) of human ACC2 gene.
(§2) PCR was performed using Pyrobest DNA polymerase (TAKARA BIO INC.). The obtained PCR product was cloned to pT7 Blue vector (Novagen) and, after confirmation of the base sequence, digested with restriction enzymes SalI and XbaI. The obtained DNA fragment was inserted into pFAST-BacHTa (Invitrogen) digested with restriction enzymes SalI and XbaI to give expression plasmid ACC2/pFAST-BacHTa.
PCR was performed using the expression plasmid as a template and Primer 3 and Primer 4 shown below to prepare a plasmid to be used for expression of ACC2 free of mitochondrial targeting sequence.
as §2, with “Pyrobest-DNA” for “Pyrobest DNA”, “AflII.” for “XbaI.”, “AflII” for “XbaI”, “ACC2mito7/pFAST-BacHTa.” for “ACC2/pFAST-BacHTa.”
Using the expression plasmid and BAC-TO-BAC Baculovirus Expression System (Invitrogen), virus stock BAC-ACC2 (N terminal deleted (hereinafter Nd)) of recombinant Baculovirus was prepared.
SF-9 cells (Invitrogen) were inoculated to a medium (2 L) for insect cells (Sf-900IISFM medium (Invitrogen) containing 10% fetal bovine serum (Trace), 50 mg/L Gentamicin (Invitrogen), 0.1% Pluronic F-68 (Invitrogen)) at 0.5×10^6 cells/mL, and cultured with shaking in Wave Bioreactor (Wave) at 27° C., 20 rpm, rocking angle […], oxygen concentration 30%.
On day 4 of the culture, 3 L of the medium for insect cells was added, the rocking angle was set to 8°, and the cells were cultured. On day 5 of the culture, 100 mL of recombinant Baculovirus BAC-ACC2 (Nd) was added, 5 L of the medium for insect cells was further added, the rocking angle was set to 11°, and the cells were cultured for 3 days. The culture medium was centrifuged at 1000×g for 10 min to give virus-infected cells. The cells were washed with phosphate buffered saline (Invitrogen) and centrifuged under the same conditions. The obtained cells were cryopreserved at −80° C.
The cryopreserved cells were thawed in ice and suspended in 900 mL of 25 mM HEPES buffer (pH 7.5) containing 10% Glycerol, 0.13 M NaCl, 1 mM EDTA, 25 mM Sodium βGlycerophosphate and 1 mM Sodium Orthovanadate, and supplemented with Complete Protease Inhibitor (Nippon Boehringer Ingelheim Co., Ltd.). The obtained suspension was homogenized 3 times in a polytron homogenizer (Kinematica) at 20,000 rpm for 30 sec. The obtained cell disruption solution was clarified by centrifugation at 31000×g for 60 min, and filtered through a 0.45 μm filter. The filtrate was passed through a column packed with 60 mL of Ni-NTA Super Flow Gel (QUIAGEN) at a flow rate of about 5 mL/min. The column was washed with buffer A (50 mM HEPES (pH 7.5) containing 0.3 M NaCl), further washed with buffer A containing 20 mM Imidazole, and eluted with buffer A containing 100 mM Imidazole. The eluate was concentrated with Vivaspin 20 (Vivascience) with a molecular weight cut off of 30K. The obtained concentrate was dialyzed against 50 mM HEPES (pH 7.5) containing 10 mM MgCl2, 2[…] Dithiothreitol, 10 mM Tripotassium Citrate and 0.3 M NaCl. The inner dialysate was filtered through a 0.22 μm filter to give ACC2 (Nd). The obtained ACC2 (Nd) was cryopreserved at −80° C.
A test compound was dissolved in dimethyl sulfoxide (DMSO) and the mixture was diluted with an enzyme reaction buffer and the resulting solution (5 μl) was added to each well.

Human ACC1 = target: T2, Human ACC1 (Homo sapiens, UniProt Q13085); experiment: Measurement of ACC1 inhibitory activity (recombinant enzyme, malachite green absorbance); type: biochemical; conditions: recombinant human ACC1 8 μg/ml; 30° C.; 200 μM ATP, 200 μM Acetyl-CoA; absorbance 620 nm
T2 construct: His tag (from the pFAST-BacHTc vector); own knowledge: N-terminal 6xHis with TEV site; made in house; host or cells: SF-9 insect cells, recombinant baculovirus BAC-ACC1
Protocol: The ACC1 inhibitory action of the compound of the present invention was evaluated by the following method.
as §1, with “ACC1” for “ACC2”, “liver” for “skeletal muscle”, “NotI” for “XbaI”, “sequence” for “sequences”, “U19822)” for “U89344)”
as §2, with “using a” for “using”, “INC.)” for “INC.).”, “NotI.” for “XbaI.”, “to pFAST-BacHTc” for “into pFAST-BacHTa”, “NotI” for “XbaI”, “ACC1/pFAST-BacHTc.” for “ACC2/pFAST-BacHTa.”
Using the expression plasmid and BAC-TO-BAC Baculovirus Expression System (Invitrogen), virus stock BAC-ACC1 of recombinant Baculovirus was prepared.
SF-9 cells (Invitrogen) were inoculated to a medium (1 L) for insect cells (Sf-900IISFM medium (Invitrogen) containing 10% fetal bovine serum (Trace), 50 mg/L Gentamicin (Invitrogen) and 0.1% Pluronic F-68 (Invitrogen)) at 1×10^6 cells/mL, and cultured with shaking at 27° C., 100 rpm in a 2 L Erlenmeyer flask.
After 24 hr of the culture, recombinant Baculovirus BAC-ACC1 (10 mL) was added, and the cells were further cultured for 3 days. The culture medium was centrifuged at 1000×g for 5 min to give virus-infected cells. The cells were washed with phosphate buffered saline (Invitrogen), and centrifuged under the same conditions, and the obtained cells were cryopreserved at −80° C.
The cryopreserved cells were thawed in ice and suspended in 100 mL of 25 mM HEPES buffer (pH 7.5) containing 10% Glycerol, 0.13 M NaCl, 1 mM EDTA, 25 mM Sodium β-Glycerophosphate and 1 mM Sodium Orthovanadate, and supplemented with Complete Protease Inhibitor (Nippon Boehringer Ingelheim Co., Ltd.). The obtained suspension was homogenized 3 times in a polytron homogenizer (Kinematica) at 20,000 rpm for 30 sec. The obtained cell disruption solution was clarified by centrifugation at 185700×g for 50 min, and filtered through a 0.45 μm filter. The filtrate was passed through a column packed with 12 mL of Ni-NTA Super Flow Gel (QUIAGEN) at a flow rate of about 5 mL/min. The column was washed with buffer A (50 mM HEPES (pH 7.5) containing 0.3 M NaCl), further washed with buffer A containing 20 mM Imidazole, and eluted with buffer A containing 100 mM Imidazole. The eluate was concentrated with Vivaspin 20 (Vivascience) with a molecular weight cut off of 30K. The obtained concentrate was dialyzed against Sephadex G-25 (Amersham Biosciences, 358 ml) equilibrated with 50 mM HEPES (pH 7.5) containing 10 mM MgCl2, 2 mM Dithiothreitol, 10 mM Tripotassium Citrate and 0.3 M NaCl. The inner dialysate was concentrated with Vivaspin 20 (Vivascience) with a molecular weight cut off of 30K, and the concentrate was filtered through a 0.22 μm filter to give ACC1. The obtained ACC1 was cryopreserved at −80° C.
ACC1 (0.93 mg/ml) obtained in the above-mentioned (2) was diluted with an enzyme reaction buffer (50 mM HEPES (pH 7.5), 10 mM MgCl2, 10 mM Tripotassium Citrate, 2 mM Dithiothreitol, 0.75 mg/ml Fatty acid free BSA) to concentration of 8 μg/ml, and the mixture was added to each well of 384 well assay plate (Nunc 265196) by 10 μl.
Thereafter, ACC1 inhibitory rate (%) was measured in the same manner as in the below-mentioned Experimental Example 2-(3), and IC50 value was calculated.
ACC2 (Nd) (1.1 mg/ml) obtained in the above-mentioned (2) was diluted with an enzyme reaction buffer (50 mM HEPES (pH 7.5), 10 mM MgCl2, 10 mM Tripotassium Citrate, 2 mM Dithiothreitol, 0.75 mg/ml Fatty acid free BSA) to a concentration of 6.4 μg/ml, and the mixture was added to each well of a 384 well assay plate (Nunc 265196) by 10 μl. […]

T1 sequence (O00763 117-2458 limits assumed, stated change not applied): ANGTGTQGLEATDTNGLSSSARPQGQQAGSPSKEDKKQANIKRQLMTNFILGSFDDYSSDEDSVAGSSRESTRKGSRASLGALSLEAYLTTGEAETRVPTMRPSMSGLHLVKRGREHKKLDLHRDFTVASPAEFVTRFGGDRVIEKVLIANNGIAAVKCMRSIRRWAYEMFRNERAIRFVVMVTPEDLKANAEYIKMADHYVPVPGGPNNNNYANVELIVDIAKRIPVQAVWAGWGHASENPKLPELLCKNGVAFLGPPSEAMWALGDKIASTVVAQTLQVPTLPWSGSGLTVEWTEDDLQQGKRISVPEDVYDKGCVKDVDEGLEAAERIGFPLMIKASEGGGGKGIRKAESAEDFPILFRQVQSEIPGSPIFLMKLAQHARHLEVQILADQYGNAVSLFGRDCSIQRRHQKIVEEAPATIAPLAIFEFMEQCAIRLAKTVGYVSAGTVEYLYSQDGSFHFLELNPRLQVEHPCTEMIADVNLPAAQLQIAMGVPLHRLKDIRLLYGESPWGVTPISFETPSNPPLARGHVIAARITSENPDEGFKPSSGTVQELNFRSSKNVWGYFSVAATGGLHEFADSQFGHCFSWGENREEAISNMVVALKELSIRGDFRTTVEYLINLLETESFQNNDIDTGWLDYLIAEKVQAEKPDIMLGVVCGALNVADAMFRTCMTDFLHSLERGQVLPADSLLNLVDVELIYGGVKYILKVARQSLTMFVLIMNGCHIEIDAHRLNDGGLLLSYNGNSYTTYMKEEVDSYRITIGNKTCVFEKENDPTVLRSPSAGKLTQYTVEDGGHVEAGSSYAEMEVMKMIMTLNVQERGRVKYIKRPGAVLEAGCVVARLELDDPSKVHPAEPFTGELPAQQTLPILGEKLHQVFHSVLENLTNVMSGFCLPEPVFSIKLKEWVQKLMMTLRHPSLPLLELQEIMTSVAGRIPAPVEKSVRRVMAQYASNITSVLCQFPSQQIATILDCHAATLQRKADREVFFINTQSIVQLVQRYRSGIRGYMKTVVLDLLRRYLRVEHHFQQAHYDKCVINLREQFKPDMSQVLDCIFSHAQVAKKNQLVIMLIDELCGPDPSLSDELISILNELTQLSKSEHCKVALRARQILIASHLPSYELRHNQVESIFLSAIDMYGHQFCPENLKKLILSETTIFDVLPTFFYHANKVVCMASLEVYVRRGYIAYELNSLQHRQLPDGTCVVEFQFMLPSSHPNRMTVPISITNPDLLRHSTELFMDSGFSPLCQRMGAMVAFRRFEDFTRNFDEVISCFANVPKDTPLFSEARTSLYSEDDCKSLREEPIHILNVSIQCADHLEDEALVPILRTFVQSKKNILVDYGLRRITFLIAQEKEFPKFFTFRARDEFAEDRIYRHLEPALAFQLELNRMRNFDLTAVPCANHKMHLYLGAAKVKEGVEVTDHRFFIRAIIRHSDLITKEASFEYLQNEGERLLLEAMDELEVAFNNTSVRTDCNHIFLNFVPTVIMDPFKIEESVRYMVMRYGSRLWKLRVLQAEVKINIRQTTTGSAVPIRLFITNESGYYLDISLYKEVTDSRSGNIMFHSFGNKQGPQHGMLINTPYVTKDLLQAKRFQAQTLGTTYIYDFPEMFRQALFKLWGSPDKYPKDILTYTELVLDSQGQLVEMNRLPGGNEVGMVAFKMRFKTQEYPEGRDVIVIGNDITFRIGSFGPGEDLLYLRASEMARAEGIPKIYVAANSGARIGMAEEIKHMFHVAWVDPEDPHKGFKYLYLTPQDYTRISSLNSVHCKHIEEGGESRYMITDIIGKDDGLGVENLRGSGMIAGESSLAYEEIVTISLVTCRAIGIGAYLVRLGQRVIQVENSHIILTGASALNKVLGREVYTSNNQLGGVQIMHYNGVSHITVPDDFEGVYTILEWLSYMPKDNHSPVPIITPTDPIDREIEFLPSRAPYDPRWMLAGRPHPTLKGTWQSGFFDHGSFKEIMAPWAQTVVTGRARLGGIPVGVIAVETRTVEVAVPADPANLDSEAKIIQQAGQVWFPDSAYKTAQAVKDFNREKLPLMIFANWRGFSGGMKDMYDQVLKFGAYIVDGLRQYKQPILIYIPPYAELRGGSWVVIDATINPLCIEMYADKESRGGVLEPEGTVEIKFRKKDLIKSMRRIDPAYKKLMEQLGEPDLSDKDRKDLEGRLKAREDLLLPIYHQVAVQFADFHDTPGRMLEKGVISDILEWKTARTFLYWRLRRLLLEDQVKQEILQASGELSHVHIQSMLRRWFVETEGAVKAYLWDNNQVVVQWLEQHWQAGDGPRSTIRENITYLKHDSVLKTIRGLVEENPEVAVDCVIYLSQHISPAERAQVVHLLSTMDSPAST

SMILES | melting point [°C] | IC50 [1] [nM] | IC50 (Human ACC1) [nM]
CNC(=O)Nc1sc2nc(C)ccc2c1C(=O)N1CCC(N2CCCC3(CCN(C(C)C)C3=O)C2)CC1 (centres unmarked) [Example 64, N-(3-{[4-(2-isopropyl-1-oxo-2,7-diazaspiro[4.5]dec-7-yl)piperidin-1-yl]carbonyl}-6-methylthieno[2,3-b]pyridin-2-yl)-N′-methylurea] | 195 to 198 | – | –
CNC(=O)Nc1sc2nc(C)ccc2c1C(=O)N1CCC(N2CCCC3(C2)CC(C)(C)OC3=O)CC1 (centres unmarked) [Example 78, N-(3-{[4-(3,3-dimethyl-1-oxo-2-oxa-7-azaspiro[4.5]dec-7-yl)piperidin-1-yl]carbonyl}-6-methylthieno[2,3-b]pyridin-2-yl)-N′-methylurea] | – | 1 to 10 | 10 to 100
CCNC(=O)Nc1sc2nc(C)ccc2c1C(=O)N1CCC(N2CCCC3(C2)CC(C)(C)OC3=O)CC1 (centres unmarked) [Example 79, N-(3-{[4-(3,3-dimethyl-1-oxo-2-oxa-7-azaspiro[4.5]dec-7-yl)piperidin-1-yl]carbonyl}-6-methylthieno[2,3-b]pyridin-2-yl)-N′-ethylurea] | – | 1 to 10 | 10 to 100

Source: patent publication US20100093777A1 (Takeda Pharmaceutical Company Limited, priority 2007, published 2010)
